These results are taken from patent US7232827B2, “Heteroaryl substituted 2-pyridinyl and 2-pyrimidinyl-6,7,8,9-tetrahydropyrimido[1,2-a]pyrimidin-4-one derivatives” (Sanofi-Aventis, priority 2002, dated 2007).

As usually defined, the pIC50 is −log10 of the IC50, conventionally taken in molar units.

This experiment addresses GSK3β (Homo sapiens, UniProt P49841). Briefly: Inhibitory activity against GSK3β (33P-ATP phosphorylation of prephosphorylated GS1 peptide). Type of experiment: biochemical. The note with it: single compounds; first or second protocol not specified. Here is the method:
Two different protocols can be used.
In a first protocol: 7.5 μM of prephosphorylated GS1 peptide and 10 μM ATP (containing 300,000 cpm of 33P-ATP) were incubated in 25 mM Tris-HCl, pH 7.5, 0.6 mM DTT, 6 mM MgCl2, 0.6 mM EGTA, 0.05 mg/ml BSA buffer for 1 hour at room temperature in the presence of GSK3β (total reaction volume: 100 microliters).
In a second protocol: 4.1 μM of prephosphorylated GS1 peptide and 42 μM ATP (containing 260,000 cpm 33P-ATP) were incubated in 80 mM Mes-NaOH, pH 6.5, 1 mM Mg acetate, 0.5 mM EGTA, 5 mM 2-mercaptoethanol, 0.02% Tween 20, 10% glycerol buffer for 2 hours at room temperature in the presence of GSK3β.
Inhibitors were solubilised in DMSO (final solvent concentration in the reaction medium, 1%).
The reaction was stopped with 100 microliters of a solution made of 25 g polyphosphoric acid (85% P2O5), 126 ml 85% H3PO4, H2O to 500 ml and then diluted to 1:100 before use. An aliquot of the reaction mixture was then transferred to Whatman P81 cation exchange filters and rinsed with the solution described above. Incorporated 33P radioactivity was determined by liquid scintillation spectrometry.
The phosphorylated GS-1 peptide had the following sequence: NH2-[…](P)EDEE-COOH.

pIC50: −log10 of the molar value.

Sequence of GSK3β (P49841 whole entry, species assumed): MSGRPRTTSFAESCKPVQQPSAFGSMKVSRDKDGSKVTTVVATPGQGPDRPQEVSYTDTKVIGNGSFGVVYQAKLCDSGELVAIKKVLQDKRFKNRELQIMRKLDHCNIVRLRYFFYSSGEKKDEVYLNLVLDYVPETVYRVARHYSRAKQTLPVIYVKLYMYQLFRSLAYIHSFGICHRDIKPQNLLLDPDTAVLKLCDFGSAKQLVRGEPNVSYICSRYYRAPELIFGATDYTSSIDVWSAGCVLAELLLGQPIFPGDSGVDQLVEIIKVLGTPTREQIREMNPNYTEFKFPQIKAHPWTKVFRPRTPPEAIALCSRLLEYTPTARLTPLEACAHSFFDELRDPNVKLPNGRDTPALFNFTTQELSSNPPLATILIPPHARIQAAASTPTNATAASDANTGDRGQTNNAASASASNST

On to `CC1CCn2c(nc(-c3ccncn3)cc2=O)N1CC1COc2ccccc2O1` (centres unmarked) [compound 8 of table 2B, 9-(2,3-Dihydro-benzo[1,4]dioxin-2-ylmethyl)-8-methyl-2-pyrimidin-4-yl-6,7,8,9-tetrahydro-pyrimido[1,2-a]pyrimidin-4-one], for which the negative logarithm of the IC50 (pIC50) is 7.82. For `Cc1ccc2c(n1)CC(CN1CC(C)(C)Cn3c1nc(-c1ccncc1)cc3=O)C2` (racemic) [compound 4 of table 1A, (+/−)-7,7-Dimethyl-9-(2-methyl-6,7-dihydro-5H-[1]pyrindin-6-ylmethyl) -2-(pyridin-4-yl)-6,7,8,9-tetrahydro-pyrimido[1,2-a]pyrimidin-4-one] the value was 8.10.
